19 compounds from ChEMBL document CHEMBL3822372, “The development of peptide ligands that target helix 69 rRNA of bacterial ribosomes” (Bioorg Med Chem, 2016) can be followed below.

pKd: −log10 of the molar value. Calls of active or inactive are those of the source. The calls are words filed in the database; no cut-off is given here.

The nature of test [1]: Binding affinity to uridylated H69 50s rRNA (unknown origin) by ESI-MS analysis. The note with it: for pKd: read-out: Kd(app).
Test [2] can be described thus: Binding affinity to pseudouridylated H69 50s rRNA (unknown origin) by ESI-MS analysis. The note with it: for pKd: read-out: Kd(app).
Test [3] in a line: Binding affinity to 5'-biotin labeled pseudouridylated H69 50s rRNA (unknown origin) by ESI-MS analysis. To be noted: read-out: Kd(app).
A short description of test [4]: Binding affinity to pseudouridylated H69 50s rRNA (unknown origin) at 20 uM by ESI-MS analysis.
The nature of test [5]: Binding affinity to 5'-biotin labeled pseudouridylated H69 50s rRNA (unknown origin) at 2:1 peptide:RNA ratio by ESI-MS analysis. The note with it: read-out: Kd(app).
Test [6] can be described thus: Binding affinity to 5'-biotin labeled uridylated H69 50s rRNA (unknown origin) by ESI-MS analysis.
Test [7] is described as follows: Binding affinity to pseudouridylated H69 50s rRNA (unknown origin) at 2:1 peptide:RNA ratio by ESI-MS analysis.
Test [8] in a line: Binding affinity to pseudouridylated H69 50s rRNA (unknown origin) at 1:1 peptide:RNA ratio by ESI-MS analysis.
A short description of test [9]: Binding affinity to MS2-tagged 50s rRNA A-site in Escherichia coli BL21(DE3) by single molecule FRET assay.
Test [10] in a line: Selectivity ratio for uridylated H69 50s rRNA (unknown origin) to pseudouridylated H69 50s rRNA (unknown origin).
Test [11] in a line: Binding affinity to uridylated H69 50s rRNA (unknown origin) at 2:1 peptide:RNA ratio by ESI-MS analysis. To be noted: read-out: Kd(app).

On to H-NQVARHQ-NH2, for which, in [1], the pKd was 4.78. Further, the “Kd(app)” value in test [2] was “inactive”.

As for H-NQVRNHQ-NH2, the pKd is 4.66 in test [1] and below 4.70 in [2].

On to H-RQVANHQ-NH2, for which the pKd in test [1] was 5.00; in test [2], 5.68.

For H-AQVANHQ-NH2, the pKd in test [1] is 5.00. Also, the “Kd(app)” value in test [2] is “inactive”.

Regarding H-NQVANHR-NH2, the pKd in test [3] is 4.50; in test [1], 4.69.

As for H-NQVAAHQ-NH2, the pKd in test [1] was 4.84. The “Kd(app)” value in test [2] is “inactive”.

As for H-NQVAHAQ-NH2, the result in [4] was inactive.

Consider H-NQRANHQ-NH2, for which the pKd in [5] is 5.22. The “Kd(app)” value in [6] is “inactive”. In addition, the outcome in test [7] and in [8] was Active.

The compound `COc1ccc(C[C@H](N)C(=O)N[C@H]2[C@@H](O)[C@H](n3cnc4c(N(C)C)ncnc43)O[C@@H]2CO)cc1` [PUROMYCIN] gave a pKd in [9] of 3.32.

Regarding H-NQVANAQ-NH2, the “Kd(app)” value in [1] and in [2] was “inactive” throughout.

On to H-NQVANRQ-NH2, for which the pKd in [1] is 4.84; in test [2] it was 5.35.

For H-NQAANHQ-NH2, in test [10], the Selectivity ratio came to 23. Further, the pKd was 5.30 in test [7] (read-out: Kd(app)) and 6.00 in [11]. The result in test [8] was Active.

On to H-NQVANHQ-NH2, for which the pKd in test [3] was 5.51; in test [1], 4.64; in test [2], 5.34.

As for H-NQVANHA-NH2, the results for the pKd in test [1] and in [2] were 4.32 and 4.87, respectively.

In the case of H-NAVANHQ-NH2, the pKd in test [1] is 4.28; in test [2], 5.34.

As for H-NQVANAH-NH2, the pKd in test [2] is below 4.70.

On to H-NRVANHQ-NH2, for which the pKd in test [1] is 4.45; in test [2], below 4.40.

For the compound H-NQVANHH-NH2, the pKd in test [2] is below 4.70.

Regarding H-NQVAHHQ-NH2, the pKd in test [2] was 4.80.

By pKd is commonly meant the negative decadic logarithm of the Kd, by convention in mol/L.
